Data reported in patent US20240158446A1, “CYCLIC COMPOUND HAVING SELECTIVE INHIBITORY ACTION ON KRAS OVER HRAS AND NRAS” (CHUGAI SEIYAKU KABUSHIKI KAISHA, priority 2021, published 2024).
Like-named read-outs stand apart in the source and are kept apart here. Where a SMILES comes first, the peptide text is derived from it. Bridges are numbered along the chain shown (N, C = ends). [ ]: non-standard residue; d: D form. The star is where a group is joined. hPhe(3-Cl-4-CF3) = N[C@@H](CCc1ccc(C(F)(F)F)c(Cl)c1)C(=O)O; NPrPhe(4-CF3) = CCCN[C@@H](Cc1ccc(C(F)(F)F)cc1)C(=O)O; NMeAbu(4,4,4-F3) = CN[C@@H](CC(F)(F)F)C(=O)O; NMeGly(cPent) = CN[C@H](C(=O)O)C1CCCC1; Pro(4,4-F2) = O=C(O)[C@@H]1CC(F)(F)CN1; NMeD = CN[C@@H](CC(=O)O)C(=O)O; Morpholide = C1CN(*)CCO1; Ac5c = NC1(C(=O)O)CCCC1; Sar = CNCC(=O)O

What was measured:
[1] = target: GDP-bound KRAS wild-type protein (Homo sapiens, UniProt P01116); assay: Binding to KRAS by surface plasmon resonance (SPR), Single Cycle Kinetics; conditions: GDP-bound KRAS wild-type protein, read-out: KRAS KD
[2] = target: GDP-bound HRAS wild-type protein (Homo sapiens, UniProt P01112); assay: Binding to HRAS by surface plasmon resonance (SPR), Single Cycle Kinetics; conditions: for HRAS/KRAS (ratio of KD value for HRAS to KD value for KRAS): SPR, GDP-bound HRAS wild-type protein vs GDP-bound KRAS wild-type protein; for HRAS/KRAS (ratio of KD value with respect to GDP-bound HRAS wild-type protein to KD value with respect to KRAS): SPR KD ratio HRAS/KRAS, class symbols
[3] = target: GDP-bound NRAS wild-type protein (Homo sapiens, UniProt P01111); assay: Binding to NRAS by surface plasmon resonance (SPR), Single Cycle Kinetics; conditions: for NRAS/KRAS (ratio of KD value for NRAS to KD value for KRAS): SPR, GDP-bound NRAS wild-type protein vs GDP-bound KRAS wild-type protein; for NRAS/KRAS (ratio of KD value with respect to GDP-bound NRAS wild-type protein to KD value with respect to KRAS): SPR KD ratio NRAS/KRAS, class symbols
[4] = SPR Single Cycle Kinetics, 1:1 binding model

GDP-bound NRAS wild-type protein, sequence (P01111 whole entry): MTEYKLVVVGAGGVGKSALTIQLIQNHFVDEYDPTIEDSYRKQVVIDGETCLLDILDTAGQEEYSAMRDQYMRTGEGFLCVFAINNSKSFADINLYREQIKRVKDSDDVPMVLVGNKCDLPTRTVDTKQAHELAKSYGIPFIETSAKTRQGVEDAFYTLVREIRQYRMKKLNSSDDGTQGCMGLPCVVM
GDP-bound HRAS wild-type protein, sequence (P01112 whole entry): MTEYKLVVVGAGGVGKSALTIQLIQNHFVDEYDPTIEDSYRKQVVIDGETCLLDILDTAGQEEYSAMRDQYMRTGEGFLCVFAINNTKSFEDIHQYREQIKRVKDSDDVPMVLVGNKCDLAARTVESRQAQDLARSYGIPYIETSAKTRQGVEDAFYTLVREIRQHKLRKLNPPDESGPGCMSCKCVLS
GDP-bound KRAS wild-type protein, sequence (P01116 whole entry): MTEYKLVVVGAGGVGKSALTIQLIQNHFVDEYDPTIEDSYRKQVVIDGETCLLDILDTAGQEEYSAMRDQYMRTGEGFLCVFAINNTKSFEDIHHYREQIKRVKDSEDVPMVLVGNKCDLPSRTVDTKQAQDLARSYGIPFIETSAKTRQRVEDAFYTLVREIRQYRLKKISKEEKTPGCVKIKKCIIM

Kd [1, 4] [nM] | SMILES | HRAS/KRAS (ratio of KD value for HRAS to KD value for KRAS) [2] | NRAS/KRAS (ratio of KD value for NRAS to KD value for KRAS) [3] | HRAS/KRAS (ratio of KD value with respect to GDP-bound HRAS wild-type protein to KD value with respect to KRAS) [2] | NRAS/KRAS (ratio of KD value with respect to GDP-bound NRAS wild-type protein to KD value with respect to KRAS) [3] | further results
0.13 | CCCN1C(=O)CN(C)C(=O)CN(C)C(=O)[C@H]([C@@H](C)CC)NC(=O)[C@H](CC(F)(F)F)N(C)C(=O)C[C@@H](C(=O)N2CCOCC2)N(C)C(=O)[C@H](C2CCCC2)N(C)C(=O)C2(CCCC2)NC(=O)[C@@H]2CC(F)(F)CN2C(=O)[C@H](CCc2ccc(C(F)(F)F)c(Cl)c2)NC(=O)CN(C)C(=O)[C@@H]1Cc1ccc(C(F)(F)F)cc1 [PP0199] ([NMeAbu(4,4,4-F3)]I[Sar][Sar][NPrPhe(4-CF3)][Sar][hPhe(3-Cl-4-CF3)][Pro(4,4-F2)][Ac5c][NMeGly(cPent)][NMeD]-Morpholide; lactam N-11) | C (A compound having a KD ratio of 0.1 or more and less than 3 is denoted as C) | B (a compound having 3 or more and less than 10 is denoted as B) |  |  | 
 | CCC[C@H]1C(=O)N[C@@H]([C@@H](C)CC)C(=O)N(C)CC(=O)N(C)[C@H]2C/C=C\CCN(C2=O)[C@@H](Cc2ccc(C(F)(F)F)cc2)C(=O)N(C)CC(=O)N[C@@H](CCc2cc(F)c(C(F)(F)F)c(F)c2)C(=O)N2C[C@H](OCC)C[C@H]2C(=O)NC2(CCC2)C(=O)N(C)[C@@H](C2CCCC2)C(=O)N(C)[C@H](C(=O)N(C)CCOC)CC(=O)N1C [PP1331, (2S,8S,12R,14S,20S,23S,27S,30S,36S,38Z)-20-cyclopentyl-8-[2-[3,5-difluoro-4-(trifluoromethyl)phenyl]ethyl]-12-ethoxy-N-(2-methoxyethyl)-N,4,19,22,26,32,35-heptamethyl-30-[(1S)-1-methylpropyl]-3,6,9,15,18,21,25,28,31,34,42-undecaoxo-27-propyl-2-[[4-(trifluoromethyl)phenyl]methyl]spiro[1,4,7,10,16,19,22,26,29,32,35-undecazatricyclo[34.5.1.0^10,14]dotetracont-38-ene-17,1′-cyclobutane]-23-carboxamide] |  |  |  |  | Kd ([1]; SPR, Single Cycle Kinetics, 1:1 binding model): 0.08 nM; HRAS/KRAS (ratio of KD value for HRAS to KD value for KRAS) ([2]; KD ratio class): A (a compound having 10 or more and less than 20 is denoted as A); NRAS/KRAS (ratio of KD value for NRAS to KD value for KRAS) ([3]; KD ratio class): A (a compound having 10 or more and less than 20 is denoted as A)
0.34 | CCC[C@H]1C(=O)N[C@@H]([C@@H](C)CC)C(=O)N(C)CC(=O)N(C)[C@H]2C/C=C\CCN(C2=O)[C@@H](Cc2ccc(C(F)(F)F)cc2)C(=O)N(C)CC(=O)N[C@@H](CCc2cc(F)c(C(F)(F)F)c(F)c2)C(=O)N2C[C@H](OCC)C[C@H]2C(=O)NC2(CC(C)(C)C2)C(=O)N(C)[C@@H](CC2CC2)C(=O)N(C)[C@H](C(=O)N(C)C)CC(=O)N1C [PP2807] |  |  | A (a compound having 10 or more and less than 20 is denoted as A) | AA (a compound having 20 or more is denoted as AA) | 
 | CCO[C@@H]1C[C@H]2C(=O)NC3(CCC3)C(=O)N(C)[C@@H](C3CCCC3)C(=O)N(C)[C@H](C(=O)N3CCOCC3)CC(=O)N(C)[C@@H](Cc3ccccc3F)C(=O)N[C@@H]([C@@H](C)CC)C(=O)N(C)CC(=O)N(C)[C@H]3CCCCCN(C3=O)[C@@H](Cc3ccc(C(F)(F)F)cc3)C(=O)N(C)CC(=O)N[C@@H](CCc3cc(F)c(C(F)(F)F)c(F)c3)C(=O)N2C1 [PP0926] | B (a compound having 3 or more and less than 10 is denoted as B) | B (a compound having 3 or more and less than 10 is denoted as B) |  |  | Kd ([1]; SPR, Single Cycle Kinetics): 2.4 nM
2.5 | CCC(CC)[C@H]1C(=O)N(C)[C@H](C(=O)N(C)C)CC(=O)N(C)[C@@H](COC)C(=O)N[C@@H]([C@@H](C)CC)C(=O)N(C)CC(=O)N(C)[C@H]2C/C=C\CCN(C2=O)[C@@H](Cc2ccc(C(F)(F)F)cc2)C(=O)N(C)CC(=O)N[C@@H](CCc2ccc(Cl)c(Cl)c2)C(=O)N2CCOC[C@H]2C(=O)NC2(CC(C)(C)C2)C(=O)N1C [PP2941] |  |  | A (a compound having 10 or more and less than 20 is denoted as A) | AA (a compound having 20 or more is denoted as AA) | 
0.82 | CCC[C@H]1C(=O)N[C@@H]([C@@H](C)CC)C(=O)N(C)CC(=O)N(C)[C@H]2C/C=C\CCN(C2=O)[C@@H](Cc2ccc(C(F)(F)F)cc2)C(=O)N(C)CC(=O)N[C@@H](CCc2ccc(Cl)c(Cl)c2)C(=O)N2C[C@H](OCC)C[C@H]2C(=O)NC2(CC(C)(C)C2)C(=O)N(C)[C@@H](CC2CC2)C(=O)N(C)[C@H](C(=O)N(C)C)CC(=O)N1C [PP2811] |  |  | A (a compound having 10 or more and less than 20 is denoted as A) | A (a compound having 10 or more and less than 20 is denoted as A) | 
